Test results from patent publication US9617256B2 (priority 2007, dated 2017).
In brackets after ≈: the same amount, converted by molar mass.

Columns and labels:
[1] = tested on: APAE006 (strain of P. aeruginosa in which all efflux pumps are inactivated); assay: microbe, parasite or virus in culture; assay type: cell-based; conditions: for MIC: Pseudomonas aeruginosa, read-out: MIC APAE006, P. aeruginosa, all efflux pumps inactivated
In short: (§1)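 Inocula prepared from 0.5 McFarland suspensions (final 3×10^5–7×10^5 CFU/mL) were added to 2-fold drug dilution series in cation-adjusted Mueller-Hinton broth. Plates stood 18-24 hours at 35° C. under ambient air.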

[2] = tested on: APAE006 in the presence of 8 micrograms per milliliter of polymyxin B nonapeptide; assay type: cell-based, P. aeruginosa; conditions: in the presence of 8 micrograms per milliliter of polymyxin B nonapeptide
In short: as §1

[3] = tested on: AABA1060 (clinical isolate of Acinetobacter baumannii); assay: MIC broth microdilution, AABA1060; assay type: cell-based; conditions: for MIC: Acinetobacter baumannii, read-out: MIC AABA1060
In short: (§2)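 CLSI-guided microdilution: bacteria passaged overnight at 35° C. on Mueller-Hinton agar, tested in cation-adjusted broth at a final 3×10^5–7×10^5 CFU/mL across 2-fold drug dilutions, read after 18-24 h at 35° C.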

[4] = tested on: AECO063 (ATCC25922 bearing an acrAB mutation); assay: microbe, parasite or virus in culture; assay type: cell-based, E. coli; conditions: for MIC: Escherichia coli, ATCC25922, read-out: MIC AECO063
In short: as §2

AECO001 HSA AGP = assay: MIC broth microdilution, AECO001 HSA AGP; assay type: cell-based, E. coli; conditions: for MIC: Escherichia coli
In short: as §2

AECO001 (ATCC25922) = assay: MIC broth microdilution, AECO001; assay type: cell-based, E. coli; conditions: for MIC: Escherichia coli, ATCC25922, read-out: MIC AECO001
In short: as §2

APAE001 (ATCC27853) = assay: MIC broth microdilution, APAE001; assay type: cell-based, P. aeruginosa; conditions: for MIC: Pseudomonas aeruginosa, ATCC27853, read-out: MIC APAE001, APAE001 is ATCC27853
In short: as §2

[5] = tested on: ASAU001 (laboratory strain of S. aureus, ATCC29213); assay: MIC broth microdilution, ASAU001; assay type: cell-based; conditions: for MIC: Staphylococcus aureus, ATCC29213, read-out: MIC ASAU001
In short: as §2

Compound	MIC [1]	MIC APAE006 + PMBN [2]	MIC [3]	MIC [4]	MIC (AECO001 HSA AGP)	MIC (AECO001 (ATCC25922))	MIC (APAE001 (ATCC27853))	MIC [5]	MIC APAE006 ([1]; P. aeruginosa, all efflux pumps inactivated)	MIC AABA1060 ([3]; clinical isolate of Acinetobacter baumannii)	MIC AECO063 ([4]; ATCC25922 bearing an acrAB mutation)	MIC AECO001 HSA AGP (AECO001 HSA AGP)	MIC AECO001 (AECO001 (ATCC25922); AECO001 is ATCC25922)	MIC APAE001 (APAE001 (ATCC27853); APAE001 is ATCC27853)	MIC ASAU001 ([5]; S. aureus ATCC29213)
O=C(CNC1CC1)NC[C@H](NC(=O)c1ccc(C#C/C=C/c2ccccc2)cc1)C(=O)NO [Example 105-1, N—[(S)-2-(2-Cyclopropylamino-acetylamino)-1-hydroxycarbamoyl-ethyl]-4-((E)-4-phenyl-but-3-en-1-ynyl)-benzamide]	< 2 µg/mL	A (MIC's of 2.0 μg/mL or less = A)	16 to 64 µg/mL (≈ 35.8 to 143 µM)	< 2 µg/mL	2 to 16 µg/mL (≈ 4.48 to 35.8 µM)	< 2 µg/mL	2 to 16 µg/mL (≈ 4.48 to 35.8 µM)	16 to 64 µg/mL (≈ 35.8 to 143 µM)	–	–	–	–	–	–	–
C[C@H](NCC(=O)NC[C@H](NC(=O)c1ccc(C#C/C=C/c2ccccc2)cc1)C(=O)NO)c1ccccc1 [Example 105-2, N—{(S)-1-Hydroxycarbamoyl-2-[2-((S)-1-phenyl-ethylamino)-acetylamino]-ethyl}-4-((E)-4-phenyl-but-3-en-1-ynyl)-benzamide]	< 2 µg/mL	A (MIC's of 2.0 μg/mL or less = A)	16 to 64 µg/mL (≈ 31.3 to 125 µM)	< 2 µg/mL	< 2 µg/mL	< 2 µg/mL	2 to 16 µg/mL (≈ 3.92 to 31.3 µM)	16 to 64 µg/mL (≈ 31.3 to 125 µM)	–	–	–	–	–	–	–
C[C@@H](NC(=O)CNC1CC1)[C@H](NC(=O)c1ccc(C#C/C=C/c2ccccc2)cc1)C(=O)NO [Example 105-3]	–	A (MIC's of 2.0 μg/mL or less = A)	–	–	–	–	–	–	B (MIC's of greater than 2.0 μg/mL to 16.0 μg/mL = B)	C (MIC's of greater than 16.0 μg/mL to 64.0 μg/mL = C)	B (MIC's of greater than 2.0 μg/mL to 16.0 μg/mL = B)	C (MIC's of greater than 16.0 μg/mL to 64.0 μg/mL = C)	C (MIC's of greater than 16.0 μg/mL to 64.0 μg/mL = C)	C (MIC's of greater than 16.0 μg/mL to 64.0 μg/mL = C)	C (MIC's of greater than 16.0 μg/mL to 64.0 μg/mL = C)
C[C@@H](NCC(=O)NC[C@H](NC(=O)c1ccc(C#C/C=C/c2ccccc2)cc1)C(=O)NO)c1ccccc1 [Example 105-4]	2 to 16 µg/mL (≈ 3.92 to 31.3 µM)	A (MIC's of 2.0 μg/mL or less = A)	16 to 64 µg/mL (≈ 31.3 to 125 µM)	< 2 µg/mL	2 to 16 µg/mL (≈ 3.92 to 31.3 µM)	< 2 µg/mL	16 to 64 µg/mL (≈ 31.3 to 125 µM)	16 to 64 µg/mL (≈ 31.3 to 125 µM)	–	–	–	–	–	–	–
C[C@@H](NCC(=O)N[C@H](C)[C@H](NC(=O)c1ccc(C#C/C=C/c2ccccc2)cc1)C(=O)NO)c1ccccc1 [Example 105-5]	2 to 16 µg/mL (≈ 3.81 to 30.5 µM)	A (MIC's of 2.0 μg/mL or less = A)	16 to 64 µg/mL (≈ 30.5 to 122 µM)	< 2 µg/mL	2 to 16 µg/mL (≈ 3.81 to 30.5 µM)	2 to 16 µg/mL (≈ 3.81 to 30.5 µM)	16 to 64 µg/mL (≈ 30.5 to 122 µM)	16 to 64 µg/mL (≈ 30.5 to 122 µM)	–	–	–	–	–	–	–
C[C@@H](O)[C@H](NC(=O)c1ccc(C=C(F)C#Cc2ccc(CN3CCOCC3)cc2)cc1)C(=O)NO [Example 109-1, 4-(2-fluoro-4-(4-(morpholinomethyl)phenyl)but-1-en-3-ynyl)-N-((2S,3R)-3-hydroxy-1-(hydroxyamino)-1-oxobutan-2-yl)benzamide]	< 2 µg/mL	A (MIC's of 2.0 μg/mL or less = A)	2 to 16 µg/mL (≈ 4.15 to 33.2 µM)	< 2 µg/mL	2 to 16 µg/mL (≈ 4.15 to 33.2 µM)	< 2 µg/mL	2 to 16 µg/mL (≈ 4.15 to 33.2 µM)	> 64 µg/mL	–	–	–	–	–	–	–
COC(=O)[C@@H](NC(=O)c1ccc(C#C/C(F)=C/c2ccc(CN3CCOCC3)cc2)cc1)[C@@H](C)O [Example 109-2, (2S,3R)-methyl 2-(4-((Z)-3-fluoro-4-(4-(morpholinomethyl)phenyl)but-3-en-1-ynyl)benzamido)-3-hydroxybutanoate]	< 2 µg/mL	A (MIC's of 2.0 μg/mL or less = A)	2 to 16 µg/mL (≈ 4.16 to 33.3 µM)	< 2 µg/mL	2 to 16 µg/mL (≈ 4.16 to 33.3 µM)	< 2 µg/mL	2 to 16 µg/mL (≈ 4.16 to 33.3 µM)	16 to 64 µg/mL (≈ 33.3 to 133 µM)	–	–	–	–	–	–	–
CC(C)[C@H](NC(=O)c1ccc(/C=C/C#Cc2ccc(CN3CCOCC3)cc2)cc1)C(=O)NO [Example 110-2]	< 2 µg/mL	A (MIC's of 2.0 μg/mL or less = A)	2 to 16 µg/mL (≈ 4.33 to 34.7 µM)	< 2 µg/mL	2 to 16 µg/mL (≈ 4.33 to 34.7 µM)	< 2 µg/mL	2 to 16 µg/mL (≈ 4.33 to 34.7 µM)	> 64 µg/mL	–	–	–	–	–	–	–
C[C@@H](N)[C@H](NC(=O)c1ccc(/C=C/C#Cc2ccc(CN3CCOCC3)cc2)cc1)C(=O)NO [Example 110-3]	< 2 µg/mL	A (MIC's of 2.0 μg/mL or less = A)	2 to 16 µg/mL (≈ 4.32 to 34.6 µM)	< 2 µg/mL	2 to 16 µg/mL (≈ 4.32 to 34.6 µM)	< 2 µg/mL	< 2 µg/mL	> 64 µg/mL	–	–	–	–	–	–	–
O=C(N[C@H](C(=O)NO)C1CCOCC1)c1ccc(/C=C/C#Cc2ccc(CN3CCOCC3)cc2)cc1 [Example 110-4]	< 2 µg/mL	A (MIC's of 2.0 μg/mL or less = A)	16 to 64 µg/mL (≈ 31.8 to 127 µM)	< 2 µg/mL	2 to 16 µg/mL (≈ 3.97 to 31.8 µM)	< 2 µg/mL	2 to 16 µg/mL (≈ 3.97 to 31.8 µM)	16 to 64 µg/mL (≈ 31.8 to 127 µM)	–	–	–	–	–	–	–
